Results taken from patent publication US5061722A, “Cis, endo-2-azabicyclo-[3.3.0]-octane-3-carboxylic acids, a process for their preparation, agents containing these compounds and their use” (Hoechst AG, priority 1981, dated 1991).

Tests used:
[1] = system: pressor reaction induced by 310 ng of angiotensin I; experiment: Intraduodenal administration to anesthetized rats, ED50; format: in vivo, rat
Protocol: (§1) 1. Intravenous administration to anesthetized rats, 50% inhibition of the pressor reaction induced by 310 ng of angiotensin I, 30 minutes after administration of the dose . . . ED50
2. Intraduodenal administration to anesthetized rats

[2] = system: pressor reaction induced by 310 ng of angiotensin I; experiment: Intravenous administration to anesthetized rats, 50% inhibition of the pressor reaction induced by 310 ng of angiotensin I; format: in vivo; conditions: Rattus norvegicus, 0.5 h, 30 minutes after administration of the dose
Protocol: as §1

[3] = system: pressor reaction triggered off by intravenous administration of angiotensin I; experiment: Oral administration to conscious rats, inhibition of the pressor reaction triggered off by intravenous angiotensin I; format: in vivo, rat; conditions: 1 mg/kg
[4] = Rattus norvegicus, read-out: ED50

C[C@H](N[C@@H](CCc1ccccc1)C(=O)O)C(=O)N1[C@H](C(=O)O)C[C@@H]2CCC[C@@H]21 [X=C6H5, Y=H, Z=H, R1=CH3, R2=H, N-(1-S-Carboxy-3-phenyl-propyl)-S-alanyl-cis,endo-2-azabicyclo-[3.3.0]-octane-3-S-carboxylic acid]
ED50 [1, 4]: 0.6 mg/kg | ED50 [2]: 0.0027 mg/kg

CCOC(=O)[C@H](CCc1ccccc1)N[C@@H](C)C(=O)N1[C@H](C(=O)O)C[C@@H]2CCC[C@@H]21 [X=C6H5, Y=H, Z=H, R1=CH3, R2=C2H5, N-(1-S-Carbethoxy-3-phenyl-propyl)-S-alanyl-cis,endo-2-azabicyclo-[3.3.0]-octane-3-S-carboxylic acid]
ED50 [1, 4]: 0.05 mg/kg | duration of the 90% inhibition of the pressor reaction [3]: over 6 hours | inhibition of the pressor reaction triggered off by intravenous administration of angiotensin I [3]: 90% | ED50 [2]: 0.0083 mg/kg

CCOC(=O)[C@H](CC(=O)c1ccccc1)N[C@@H](C)C(=O)N1[C@H](C(=O)O)C[C@@H]2CCC[C@@H]21 [X=C6H5, Y=--, Z=O, R1=CH3, R2=C2H5, N-(1-S-carbethoxy-3-oxo-3-phenyl-propyl)-S-alanyl-cis,endo-2-azabicyclo-[3.3.0]-octane-3-S-carboxylic acid]
ED50 [1, 4]: 0.28 mg/kg

C[C@H](N[C@@H](CC(=O)c1ccccc1)C(=O)OCc1ccccc1)C(=O)N1C(C(=O)O)CC2CCCC21 (relative stereo) [X=C6H5, Y=--, Z=O, R1=CH3, R2=C7H7, N-(1-S-Carbobenzyloxy-3-oxo-3-phenyl-propyl)-S-alanyl-2-cis,endo-azabicyclo-[3.3.0]-octane-3-carboxylic acid]
ED50 [1]: 0.25 mg/kg
